Source: EPA's CvTdb concentration-time database

What was measured:
Assay in all cases: concentration in plasma after dosing
[1] = test system: Rat; conditions: 5 min; dosed: Di-n-butyl phthalate; 20 mg/kg; iv; Male; Sprague-Dawley
[2] = test system: Rat; conditions: 10 min; dosed: Di-n-butyl phthalate; 20 mg/kg; iv; Male; Sprague-Dawley
[3] = test system: Rat; conditions: 5 min; dosed: Di-n-butyl phthalate; 20 mg/kg; iv; Male; Sprague-Dawley; remark: listed apart in the source
[4] = test system: Rat; conditions: iv
[5] = test system: Rat; conditions: 10 min; dosed: Di-n-butyl phthalate; 20 mg/kg; iv; Male; Sprague-Dawley; remark: listed apart in the source
[6] = test system: Rat; conditions: dosed: DL-Camphor, 6 mg/kg, iv, Female, F344
[7] = test system: Rat; conditions: dosed: DL-Camphor, 6 mg/kg, iv, Male, F344
[8] = test system: Rat; conditions: 1 h; dosed: DL-Camphor; 6 mg/kg; iv; Female; F344
[9] = test system: Rat; conditions: dosed: DL-Camphor, 6 mg/kg, iv, Male, F344; remark: listed apart in the source
[10] = test system: Rat; conditions: 1.5 h; dosed: DL-Camphor; 6 mg/kg; iv; Male; F344
[11] = test system: Rat; conditions: dosed: DL-Camphor, 6 mg/kg, iv, Female, F344; remark: listed apart in the source
[12] = test system: Rat; conditions: 1.5 h; dosed: DL-Camphor; 6 mg/kg; iv; Female; F344
[13] = test system: Rat; conditions: dosed: DL-Camphor, 6 mg/kg, iv, Female, F344; remark: listed apart in the source
[14] = test system: Rat; conditions: dosed: DL-Camphor, 6 mg/kg, iv, Male, F344; remark: listed apart in the source
[15] = test system: Rat; conditions: dosed: DL-Camphor, 6 mg/kg, iv, Male, F344; remark: listed apart in the source
[16] = test system: Rat; conditions: dosed: DL-Camphor, 6 mg/kg, iv, Male, F344; remark: listed apart in the source
[17] = test system: Rat; conditions: 6 h; dosed: DL-Camphor; 6 mg/kg; iv; Male; F344
[18] = test system: Rat; conditions: 1 h; dosed: DL-Camphor; 6 mg/kg; iv; Female; F344; remark: listed apart in the source
[19] = test system: Rat; conditions: dosed: DL-Camphor, 6 mg/kg, iv, Male, F344; remark: listed apart in the source
[20] = test system: Rat; conditions: dosed: DL-Camphor, 6 mg/kg, iv, Female, F344; remark: listed apart in the source
[21] = test system: Rat; conditions: dosed: DL-Camphor, 6 mg/kg, iv, Female, F344; remark: listed apart in the source
[22] = test system: Rat; conditions: dosed: DL-Camphor, 6 mg/kg, iv, Male, F344; remark: listed apart in the source
[23] = test system: Rat; conditions: dosed: DL-Camphor, 6 mg/kg, iv, Female, F344; remark: listed apart in the source
[24] = test system: Rat; conditions: dosed: DL-Camphor, 6 mg/kg, iv, Male, F344; remark: listed apart in the source
[25] = test system: Rat; conditions: 1.5 h; dosed: DL-Camphor; 6 mg/kg; iv; Female; F344; remark: listed apart in the source
[26] = test system: Rat; conditions: dosed: DL-Camphor, 6 mg/kg, iv, Male, F344; remark: listed apart in the source
[27] = test system: Rat; conditions: dosed: DL-Camphor, 6 mg/kg, iv, Female, F344; remark: listed apart in the source
[28] = test system: Rat; conditions: dosed: DL-Camphor, 6 mg/kg, iv, Male, F344; remark: listed apart in the source
[29] = test system: Rat; conditions: dosed: DL-Camphor, 6 mg/kg, iv, Female, F344; remark: listed apart in the source

CCCCOC(=O)c1ccccc1C(=O)OCCCC [Di-n-butyl phthalate]
Conditions	concentration in plasma [ng/mL]
[1]	10700
[2]	2950
[3]	1210
[5]	4220

[4], dosed: Di-n-butyl phthalate, 20 mg/kg, Male, Sprague-Dawley
Conditions	concentration in plasma [ng/mL]
5 min	9370
10 min	3520
20 min	957

CC12CCC(CC1=O)C2(C)C (racemic) [DL-Camphor]
Conditions	concentration in plasma [ng/mL]
[6], 0.75 h	526
[6], 8 h	98.3
[7], 2 h	205
[7], 5 min	3700
[9], 2 h	205
[9], 5 min	4050
[11], 0.25 h	1520
[11], 6 h	18.3
[13], 0.75 h	114
[13], 8 h	46.7
[14], 1 h	411
[14], 10 h	35
[15], 0.25 h	1680
[15], 1.5 h	197
[16], 1 h	257
[16], 10 h	77.4
[19], 0.5 h	648
[19], 4 h	127
[20], 0.5 h	612
[20], 4 h	61.7
[21], 2 h	191
[21], 5 min	3070
[22], 0.75 h	577
[22], 8 h	31.3
[23], 0.25 h	132
[23], 6 h	70.2
[24], 0.25 h	1710
[24], 6 h	88.1
[26], 0.75 h	545
[26], 8 h	49.1
[27], 0.5 h	848
[27], 4 h	62.7
[28], 0.5 h	258
[28], 4 h	135
[29], 2 h	152
[29], 5 min	2850

Conditions	concentration in plasma [ng/mL]
[8]	391
[10]	228
[12]	240
[17]	87
[18]	411
[25]	121

concentration in plasma [ng/mL], [4], dosed: DL-Camphor, 6 mg/kg, F344
Conditions	Female	Male
0.25 h	1250	1350
0.5 h	731	839
0.75 h	527	617
1 h	96	326
1.5 h	332	196
2 h	221	186
4 h	65.9	138
5 min	3000	4140
6 h	222	76.7
8 h	–	31
10 h	10.3	27.3
